SMILES strings stand for the structures.

The subject of the assay is AM2.2-beta2AR cells viability, CellTiter-Glo luminescence, 18 h. Put plainly: cytotoxic effect in β2-adrenoceptor-expressing AM2.2 line, concentration-response curve, toxicity counterscreen for β2-adrenoceptor internalization ligand effort, cell-based, luminescent CellTiter-Glo detection, Powder Set 4 (AID 651870).
Usually EC50 stands for the concentration that produces a half-maximal response. In the case of `CCCCC(=O)Nc1ccc(S(=O)(=O)N2CCCCC2c2cccnc2)cc1` (stereo not drawn), the EC50 is 8.76 µM. Then `CN(CC(=O)N1CCN(c2cccc(C(F)(F)F)c2)CC1)S(=O)(=O)c1ccc(F)cc1`, with 31.9 µM; and `Cc1ccc(S(=O)(=O)N2CCCCC2C(=O)N2CCN(c3ccc(C(F)(F)F)cn3)CC2)cc1` (stereo not drawn), with 12.8 µM.
